From US9856216B2, “Compounds as TNIK, IKKε and TBK1 inhibitors and pharmaceutical composition comprising same” (GREEN CROSS CORPORATION, priority 2015, dated 2018)
pIC50: −log10 of the molar value.

target: T1, TNIK (Homo sapiens, UniProt Q9UKE5); experiment: ADP-Glo Kinase Assay, inhibition activity on TNIK; format: biochemical; conditions: not given
T1 construct: purchased Promega V4158
Experimental: The inhibition activities on TNIK, IKKε and TBK1 were measured by a luminometer, TNIK/IKKε/TBK1 Kinase Enzyme System (Promega, Ca# V4158; Invitrogen, PR8031B, Promega, Ca# V3991) and ADP-Glo Kinase Assay using ADP-Glo™ Kinase Analysis Kit (Promega, Ca# V9101) and a kinase reaction buffer [40 mM Tris(pH 7.5), 20 mM MgCl2, 0.1 mg/mL BSA] in accordance with the manufacturer's protocol.

T1 sequence (Q9UKE5 1-367 limits assumed): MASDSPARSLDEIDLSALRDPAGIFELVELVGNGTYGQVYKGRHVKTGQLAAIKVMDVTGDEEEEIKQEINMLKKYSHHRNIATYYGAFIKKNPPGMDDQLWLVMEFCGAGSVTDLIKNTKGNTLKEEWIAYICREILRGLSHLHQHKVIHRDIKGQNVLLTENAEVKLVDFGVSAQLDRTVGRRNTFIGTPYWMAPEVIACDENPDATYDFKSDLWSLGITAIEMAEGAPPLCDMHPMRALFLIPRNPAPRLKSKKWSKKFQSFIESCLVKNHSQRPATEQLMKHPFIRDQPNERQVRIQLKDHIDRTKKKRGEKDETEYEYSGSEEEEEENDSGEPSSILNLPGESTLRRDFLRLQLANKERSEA

For `COC(=O)c1ccc(-c2ccc(NC(=O)c3ccccc3)c3c2CNC3=O)cc1` [Example 10, methyl 4-(7-benzamido-1-oxoisoindolin-4-yl)benzo ate], which “TNIK (μM)” value is on record?
Its value is “Insoluble”.

`CC(=O)c1ccc(-c2ccc(NC(=O)c3ccccc3)c3c2CNC3=O)cc1` [Example 13, N-(7-(4-acetylphenyl)-3-oxoisoindolin-4-yl)benzamide] was tested. Which “TNIK (μM)” value did it give?
Its value is “Insoluble”.

Which “TNIK (μM)” value does the source give for `O=C(Nc1ccc(-c2cc(Cl)ccc2Cl)c2c1C(=O)NC2)c1ccccc1` [Example 19, N-(7-(2,5-dichlorophenyl)-3-oxoisoindolin-4-yl)benzamide] here?
Its value is “Insoluble”.

Which “TNIK (μM)” value does the source give for `COc1cc(F)ccc1-c1ccc(NC(=O)c2ccccc2)c2c1CNC2=O` [Example 22, N-(7-(4-fluoro-2-methoxyphenyl)-3-oxoisoindolin-4-yl)benzamide] here?
Its value is “Insoluble”.

How did the “TNIK (μM)” value turn out when `COc1ccc(-c2ccc(NC(=O)c3ccccc3)c3c2CNC3=O)c(OC)c1OC` [Example 25, N-(3-oxo-7-(2,3,4-trimethoxyphenyl)isoindolin-4-yl)benzamide] was run?
The value was “Insoluble”.

same assay, conditions: read-out: TNIK

With `CCc1ccccc1-c1ccc(NC(=O)c2ccccc2)c2c1CNC2=O` [Example 1, N-(7-(2-ethylphenyl)-3-oxoisoindolin-4-yl)benzamide] as the molecule, how does the pIC50 read?
The pIC50 was 5.51.

How did the pIC50 turn out when `CC(C)c1cccc(-c2ccc(NC(=O)c3ccccc3)c3c2CNC3=O)c1` [Example 2, N-(7-(3-isopropylphenyl)-3-oxoisoindolin-4-yl)benzamide] was run?
The pIC50 was under 4.70.

How did the pIC50 turn out when `CC(C)(C)c1ccc(-c2ccc(NC(=O)c3ccccc3)c3c2CNC3=O)cc1` [Example 3, N-(7-(4-(tert-butyl)phenyl)-3-oxoisoindolin-4-yl)benzamide] was run?
Its pIC50 is under 4.70.

With `O=C(Nc1ccc(-c2ccccc2OC(F)(F)F)c2c1C(=O)NC2)c1ccccc1` [Example 4, N-(3-oxo-7-(2-(trifluoromethoxy)phenyl)isoindolin-4-yl)benzamide] as the molecule, how does the pIC50 read?
The pIC50 was 5.52.

With `O=C(Nc1ccc(-c2cccc(OC(F)(F)F)c2)c2c1C(=O)NC2)c1ccccc1` [Example 5, N-(3-oxo-7-(3-(trifluoromethoxy)phenyl)isoindolin-4-yl)benzamide] as the molecule, how does the pIC50 read?
The pIC50 was under 4.70.

With `CC(C)Oc1ccccc1-c1ccc(NC(=O)c2ccccc2)c2c1CNC2=O` [Example 6, N-(7-(2-isopropoxyphenyl)-3-oxoisoindolin-4-yl)benzamide] as the molecule, how does the pIC50 read?
The pIC50 was under 4.70.

How did the pIC50 turn out when `CC(C)Oc1cccc(-c2ccc(NC(=O)c3ccccc3)c3c2CNC3=O)c1` [Example 7, N-(7-(3-isopropoxyphenyl)-3-oxoisoindolin-4-yl)benzamide] was run?
The pIC50 was under 4.70.

`COC(=O)c1ccccc1-c1ccc(NC(=O)c2ccccc2)c2c1CNC2=O` [Example 8, methyl 2-(7-benzamido-1-oxoisoindolin-4-yl)benzo ate] was tested. Which pIC50 did it give?
The pIC50 was under 4.70.

With `COC(=O)c1cccc(-c2ccc(NC(=O)c3ccccc3)c3c2CNC3=O)c1` [Example 9, methyl 3-(7-benzamido-1-oxoisoindolin-4-yl)benzo ate] as the molecule, how does the pIC50 read?
Its pIC50 is under 4.70.

How did the pIC50 turn out when `CC(=O)c1ccccc1-c1ccc(NC(=O)c2ccccc2)c2c1CNC2=O` [Example 11, N-(7-(2-acetylphenyl)-3-oxoisoindolin-4-yl)benzamide] was run?
The pIC50 was 5.02.

How did the pIC50 turn out when `CC(=O)c1cccc(-c2ccc(NC(=O)c3ccccc3)c3c2CNC3=O)c1` [Example 12, N-(7-(3-acetylphenyl)-3-oxoisoindolin-4-yl)benzamide] was run?
The pIC50 was under 4.70.

How did the pIC50 turn out when `CSc1ccccc1-c1ccc(NC(=O)c2ccccc2)c2c1CNC2=O` [Example 14, N-(7-(2-(methylthio)phenyl)-3-oxoisoindolin-4-yl)benzamide] was run?
The pIC50 was 5.96.

With `O=C(Nc1ccc(-c2ccc(F)cc2F)c2c1C(=O)NC2)c1ccccc1` [Example 15, N-(7-(2,4-difluorophenyl)-3-oxoisoindolin-4-yl)benzamide] as the molecule, how does the pIC50 read?
The pIC50 was under 4.70.

With `Cc1cccc(-c2ccc(NC(=O)c3ccccc3)c3c2CNC3=O)c1C` [Example 16, N-(7-(2,3-dimethylphenyl)-3-oxoisoindolin-4-yl)benzamide] as the molecule, how does the pIC50 read?
The pIC50 was 5.89.

`O=C(Nc1ccc(-c2cccc(Cl)c2Cl)c2c1C(=O)NC2)c1ccccc1` [Example 17, N-(7-(2,3-dichlorophenyl)-3-oxoisoindolin-4-yl)benzamide] was tested. Which pIC50 did it give?
The pIC50 was 6.00.

`O=C(Nc1ccc(-c2ccc(Cl)cc2Cl)c2c1C(=O)NC2)c1ccccc1` [Example 18, N-(7-(2,4-dichlorophenyl)-3-oxoisoindolin-4-yl)benzamide] was tested. Which pIC50 did it give?
The pIC50 was under 4.70.

`O=C(Nc1ccc(-c2ccc(Cl)c(Cl)c2)c2c1C(=O)NC2)c1ccccc1` [Example 20, N-(7-(3,4-dichlorophenyl)-3-oxoisoindolin-4-yl)benzamide] was tested. Which pIC50 did it give?
The pIC50 was under 4.70.

`O=C(Nc1ccc(-c2cc(Cl)cc(Cl)c2)c2c1C(=O)NC2)c1ccccc1` [Example 21, N-(7-(3,5-dichlorophenyl)-3-oxoisoindolin-4-yl)benzamide] was tested. Which pIC50 did it give?
Its pIC50 is under 4.70.

`O=C(Nc1ccc(-c2cccc(F)c2Cl)c2c1C(=O)NC2)c1ccccc1` [Example 23, N-(7-(2-chloro-3-fluorophenyl)-3-oxoisoindolin-4-yl)benzamide] was tested. Which pIC50 did it give?
The pIC50 was 5.05.

How did the pIC50 turn out when `COc1cccc(-c2ccc(NC(=O)c3ccccc3)c3c2CNC3=O)c1F` [Example 24, N-(7-(2-fluoro-3-methoxyphenyl)-3-oxoisoindolin-4-yl)benzamide] was run?
The pIC50 was under 4.70.

How did the pIC50 turn out when `Cc1ccc(-c2ccc(NC(=O)c3ccccc3)c3c2CNC3=O)cc1C` [Example 26, N-(7-(3,4-dimethylphenyl)-3-oxoisoindolin-4-yl)benzamide] was run?
The pIC50 was 5.42.

How did the pIC50 turn out when `Cc1cc(C)cc(-c2ccc(NC(=O)c3ccccc3)c3c2CNC3=O)c1` [Example 27, N-(7-(3,5-dimethylphenyl)-3-oxoisoindolin-4-yl)benzamide] was run?
The pIC50 was 5.52.

With `Cc1cccc(C)c1-c1ccc(NC(=O)c2ccccc2)c2c1CNC2=O` [Example 28, N-(7-(2,6-dimethylphenyl)-3-oxoisoindolin-4-yl)benzamide] as the molecule, how does the pIC50 read?
The pIC50 was 5.77.

How did the pIC50 turn out when `CCc1ccc(NC(=O)c2ccccc2)c2c1CNC2=O` [Example 29, N-(7-ethyl-3-oxoisoindolin-4-yl)benzamide] was run?
The pIC50 was 5.74.

With `O=C(Nc1ccc(-c2cc(F)cc(F)c2)c2c1C(=O)NC2)c1ccccc1` [Example 30, N-(7-(3,5-difluorophenyl)-3-oxoisoindolin-4-yl)benzamide] as the molecule, how does the pIC50 read?
The pIC50 was under 4.70.

How did the pIC50 turn out when `Cc1ccc(C)c(-c2ccc(NC(=O)c3ccccc3)c3c2CNC3=O)c1` [Example 31, N-(7-(2,5-dimethylphenyl)-3-oxoisoindolin-4-yl)benzamide] was run?
The pIC50 was 5.80.

With `O=C(Nc1ccc(-c2cc(F)ccc2F)c2c1C(=O)NC2)c1ccccc1` [Example 32, N-(7-(2,5-difluorophenyl)-3-oxoisoindolin-4-yl)benzamide] as the molecule, how does the pIC50 read?
Its pIC50 is 6.00.

`O=C(Nc1ccc(-c2ccc(F)c(F)c2)c2c1C(=O)NC2)c1ccccc1` [Example 33, N-(7-(3,4-difluorophenyl)-3-oxoisoindolin-4-yl)benzamide] was tested. Which pIC50 did it give?
Its pIC50 is 5.43.

`O=C(Nc1ccc(-c2cccc(F)c2F)c2c1C(=O)NC2)c1ccccc1` [Example 34, N-(7-(2,3-difluorophenyl)-3-oxoisoindolin-4-yl)benzamide] was tested. Which pIC50 did it give?
The pIC50 was 6.27.

How did the pIC50 turn out when `CCCCc1ccc(NC(=O)c2ccccc2)c2c1CNC2=O` [Example 35, N-(7-butyl-3-oxoisoindolin-4-yl)benzamide] was run?
The pIC50 was 5.07.

With `CCCc1ccc(NC(=O)c2ccc(F)cc2)c2c1CNC2=O` [Example 36, 4-fluoro-N-(3-oxo-7-propylisoindolin-4-yl)benzamide] as the molecule, how does the pIC50 read?
The pIC50 was under 4.70.

How did the pIC50 turn out when `Cc1ccc(NC(=O)c2ccccc2)c2c1CNC2=O` [Example 37, N-(7-methyl-3-oxoisoindolin-4-yl)benzamide] was run?
The pIC50 was 5.21.
